SMILES strings stand for the structures. Several values for one entry are separate records, joined by “and”; a condition that tells them apart may be missing. Equal values may be shown once.

Data on 1 compound can be found in patent publication US4976950A, “Bone marrow suppressing agents” (The Dow Chemical Company, priority 1989, dated 1990).

Data set [1] can be described thus: Biodistribution: % of injected dose in tissue 2 hours after tail vein injection (NaI scintillation counting). As to conditions: rat i.v. Format: in vivo, Sprague Dawley rats. The protocol:
The rats weighed between 150 and 200 g at the time of injection. After 2 hours the rats were killed by cervical dislocation and dissected. The amount of radioactivity in each tissue was determined by counting in a NaI scintillation counter coupled to a multichannel analyzer. The counts were compared to the counts in 100 μL standards in order to determine the percentage of the dose in each tissue or organ.
(§1) The rats weighed between 150 and 200 g at the time of injection. After 2 hours the rats were killed by cervical dislocation and dissected. The amount of radioactivity in each tissue was determined by counting in a NaI scintillation counter coupled to a multichannel analyzer. The counts were compared to the counts in 100 μL standards in order to determined the percentage of the dose in each tissue or organ. The numbers represent the average of 5 rats per data point.
as §1, with “Sprague Dawley rats were allowed to acclimate for five days then injected with 100 μL of the Sm solution described above via a tail vein. The rats” for “The rats”, “order to determine the percentage” for “order to determined the percentage”, “average of 3 rats per” for “average of 5 rats per”
Sprague Dawley rats were allowed to acclimate for five days then injected with 100 μL of the Ho solution described above via a tail vein. The rats weighed between 150 and 200 g at the time of injection. After 2 hours the rats were killed by cervical dislocation and dissected. The amount of radioactivity in each tissue wa determined by counting in a NaI scintillation counter coupled to a multichannel analyzer. The counts were compared to the counts in 100 μL standards in order to determine the percentage of the dose in each tissue or organ. The numbers represent the average of 3 rats per data point.
Sprague Dawley rats were allowed to acclimate for five days then injected with 100 μL of the solutions described above via a tail vein. The rats weighed between 150 and 200 g at the time of injection. After 2 hours the rats were killed by cervical dislocation. Tissues were taken, weighed and the amount of radioactivity determined by counting in a NaI scintillation counter coupled to a multichannel analyzer. The counts in each tissue were compared to the counts in 100 μL standards in order to determine the percentage of the dose in each tissue or organ.
A Sprague Dawley rat was allowed to acclimate for five days then injected with 175 μL of the solution described above via a tail vein. The rat weighed 155 g at the time of injection. After 2 hours the rat was killed by cervical dislocation and dissected. The amount of radioactivity in each tissue was determined by counting in a NaI scintillation counter coupled to a multichannel analyzer. The counts in each tissue were compared to the counts in […] standards in order to determine the percentage of the dose in each tissue or organ.

In another data set the test system is white blood cell. As to the kind of experiment: White blood cell count after injection of radionuclide complex (Unopette Test 5856). Format: in vivo, Sprague Dawley rats. The protocol:
Six Sprague Dawley rats were allowed to acclimate for a period of 6 days then a sample of blood was taken daily from the tail vein and the white blood cell count determined by a standard manual method (Unopette Test 5856 from Becton-Dickinson and Company). On the fourth day, rats numbered 2, 4 and 6 were injected with 0.9 mCi (33.3 MBq) of the above complex. The rat weight at this time ranged from 160-180 g. On days 7, 8, and 9 the white blood cell count was again determined for each rat. Table VI gives the white blood cell count of the injected (2, 4 and 6) rats compared to the control rats (1, 3, and 5). […]

[2] abbreviates: 0.9 mCi (33.3 MBq) injected Day 4, individual rats 2, 4, 6 (Day 4 counts 28950, 21300, 17600).

For the compound `O=P([O-])(O)CN1CCN(CP(=O)(O)O)CCN(CP(=O)([O-])O)CCN(CP(=O)(O)O)CC1.[166Ho]` [Ho-DOTMP], the “% Injection dose in blood” value in data set [1] (Table IV, Blood, 0.6 mM Ho, ligand to Ho ratio approximately 1.5, average of 3 rats) is given as 0.07%. Besides, in data set [1] (Table IV, Kidney, 0.6 mM Ho, ligand to Ho ratio approximately 1.5, average of 3 rats), the “% Injection dose in kidney” value turned out to be 0.4%. Moreover, in data set [1] (Table IV, Liver, 0.6 mM Ho, ligand to Ho ratio approximately 1.5, average of 3 rats), the “% Injection dose in liver” value is given as 0.07%. Besides, the “% Injected dose in blood” value in data set [1] (Table V, Blood, ligand of Example 2, cation exchange purified, average of 3 rats) came to 0.17%. The “% Injected dose in bone” value in data set [1] (Table V, Bone, ligand of Example 2, cation exchange purified, average of 3 rats) is given as 64%. The “% Injected dose in liver” value in data set [1] (Table V, Liver, ligand of Example 2, cation exchange purified, average of 3 rats) was 0.19%. Besides, the “Blood count of treated animals compared to untreated animals” value in the data set with white blood cell (0.9 mCi (33.3 MBq) i.v., rats, days 7, 8 and 9, injected on day 4) was “significant drop in the blood count”. Moreover, in the data set on white blood cell (setting [2]), the “White blood cell count, Day 7” value is 5850 and 7400 and 5400; the “White blood cell count, Day 8” value was 7950 and 7500 and 4750; the “White blood cell count, Day 9” value was 7900 and 7550 and 5350.
